# From paper PMC8371461 (Frontiers in Pharmacology, 2021)
# Tests used:
# [1] = target: T1, ABL1(T315I)-phosphorylated (Homo sapiens, UniProt P00519, T315I); assay: kinome scan; type: binding; settings: 10 µM
# T1 construct: purchased DiscoverX (KINOMEscan)
# ACVRL1 = target: T2, ACVRL1 (Homo sapiens, UniProt P37023); assay: kinome scan; type: binding; settings: 10 µM
# T2 construct: purchased DiscoverX (KINOMEscan)
# CASK = target: T3, CASK (Homo sapiens, UniProt O14936); assay: kinome scan; type: binding; settings: 10 µM
# T3 construct: purchased DiscoverX (KINOMEscan)
# CLK2 = target: T4, CLK2 (Homo sapiens, UniProt P49760); assay: kinome scan; type: binding; settings: 10 µM
# T4 construct: purchased DiscoverX (KINOMEscan)
# CLK4 = target: T5, CLK4 (Homo sapiens, UniProt Q9HAZ1); assay: kinome scan; type: binding; settings: 10 µM
# T5 construct: purchased DiscoverX (KINOMEscan)
# EGFR(L747-E749delA750P) = target: T6, EGFR(L747-E749delA750P) (Homo sapiens, UniProt P00533, A750P/DEL747-749); assay: kinome scan; type: binding; settings: 10 µM
# T6 construct: purchased DiscoverX (KINOMEscan)
# EIF2AK1 = target: T7, EIF2AK1 (Homo sapiens, UniProt Q9BQI3); assay: kinome scan; type: binding; settings: 10 µM
# T7 construct: purchased DiscoverX (KINOMEscan)
# HIPK1 = target: T8, HIPK1 (Homo sapiens, UniProt Q86Z02); assay: kinome scan; type: binding; settings: 10 µM
# T8 construct: purchased DiscoverX (KINOMEscan)
# KIT(V559D) = target: T9, KIT(V559D) (Homo sapiens, UniProt P10721, V559D); assay: kinome scan; type: binding
# T9 construct: purchased DiscoverX (KINOMEscan)
# T9 sequence (P10721 26-976 V559D): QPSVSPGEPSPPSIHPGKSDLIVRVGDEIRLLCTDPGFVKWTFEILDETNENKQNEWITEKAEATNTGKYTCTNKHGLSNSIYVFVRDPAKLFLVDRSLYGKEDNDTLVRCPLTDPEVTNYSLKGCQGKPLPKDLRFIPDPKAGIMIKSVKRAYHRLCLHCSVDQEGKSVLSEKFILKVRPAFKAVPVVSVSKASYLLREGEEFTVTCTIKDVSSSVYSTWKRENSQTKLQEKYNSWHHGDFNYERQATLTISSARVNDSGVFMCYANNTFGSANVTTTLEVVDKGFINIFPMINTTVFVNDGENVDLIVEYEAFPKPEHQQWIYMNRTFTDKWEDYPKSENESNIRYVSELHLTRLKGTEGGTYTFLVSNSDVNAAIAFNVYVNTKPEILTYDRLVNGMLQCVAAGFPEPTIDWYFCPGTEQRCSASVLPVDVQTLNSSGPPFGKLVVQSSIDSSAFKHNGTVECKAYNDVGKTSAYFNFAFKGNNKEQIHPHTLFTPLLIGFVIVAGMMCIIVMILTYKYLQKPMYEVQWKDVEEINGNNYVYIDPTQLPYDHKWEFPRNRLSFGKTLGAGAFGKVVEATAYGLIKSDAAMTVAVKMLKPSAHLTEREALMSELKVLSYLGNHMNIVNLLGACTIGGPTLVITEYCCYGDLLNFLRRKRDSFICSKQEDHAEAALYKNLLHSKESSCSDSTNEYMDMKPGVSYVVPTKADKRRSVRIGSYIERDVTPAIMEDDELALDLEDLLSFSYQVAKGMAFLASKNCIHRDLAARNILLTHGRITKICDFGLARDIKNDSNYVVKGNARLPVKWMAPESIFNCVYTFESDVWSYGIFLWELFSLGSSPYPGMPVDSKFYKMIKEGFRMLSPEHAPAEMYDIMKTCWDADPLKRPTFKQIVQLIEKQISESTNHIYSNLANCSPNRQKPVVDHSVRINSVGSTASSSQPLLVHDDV
# LIMK2 = target: T10, LIMK2 (Homo sapiens, UniProt P53671); assay: kinome scan; type: binding; settings: 10 µM
# T10 construct: purchased DiscoverX (KINOMEscan)
# MAPKAPK2 = target: T11, MAPKAPK2 (Homo sapiens, UniProt P49137); assay: kinome scan; type: binding; settings: 10 µM
# T11 construct: purchased DiscoverX (KINOMEscan)
# T11 sequence (P49137 whole entry): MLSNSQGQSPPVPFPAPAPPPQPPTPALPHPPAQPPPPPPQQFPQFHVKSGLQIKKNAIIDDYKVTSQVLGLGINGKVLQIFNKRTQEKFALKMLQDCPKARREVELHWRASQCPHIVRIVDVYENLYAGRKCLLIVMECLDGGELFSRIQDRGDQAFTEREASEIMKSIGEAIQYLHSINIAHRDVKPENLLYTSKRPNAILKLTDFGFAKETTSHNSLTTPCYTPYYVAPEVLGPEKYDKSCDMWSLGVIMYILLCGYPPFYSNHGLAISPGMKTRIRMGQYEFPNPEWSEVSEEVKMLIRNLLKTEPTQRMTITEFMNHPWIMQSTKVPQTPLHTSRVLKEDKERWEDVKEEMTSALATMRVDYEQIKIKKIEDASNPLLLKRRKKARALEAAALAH
# MARK3 = target: T12, MARK3 (Homo sapiens, UniProt P27448); assay: kinome scan; type: binding; settings: 10 µM
# T12 construct: purchased DiscoverX (KINOMEscan)
# T12 sequence (P27448 whole entry): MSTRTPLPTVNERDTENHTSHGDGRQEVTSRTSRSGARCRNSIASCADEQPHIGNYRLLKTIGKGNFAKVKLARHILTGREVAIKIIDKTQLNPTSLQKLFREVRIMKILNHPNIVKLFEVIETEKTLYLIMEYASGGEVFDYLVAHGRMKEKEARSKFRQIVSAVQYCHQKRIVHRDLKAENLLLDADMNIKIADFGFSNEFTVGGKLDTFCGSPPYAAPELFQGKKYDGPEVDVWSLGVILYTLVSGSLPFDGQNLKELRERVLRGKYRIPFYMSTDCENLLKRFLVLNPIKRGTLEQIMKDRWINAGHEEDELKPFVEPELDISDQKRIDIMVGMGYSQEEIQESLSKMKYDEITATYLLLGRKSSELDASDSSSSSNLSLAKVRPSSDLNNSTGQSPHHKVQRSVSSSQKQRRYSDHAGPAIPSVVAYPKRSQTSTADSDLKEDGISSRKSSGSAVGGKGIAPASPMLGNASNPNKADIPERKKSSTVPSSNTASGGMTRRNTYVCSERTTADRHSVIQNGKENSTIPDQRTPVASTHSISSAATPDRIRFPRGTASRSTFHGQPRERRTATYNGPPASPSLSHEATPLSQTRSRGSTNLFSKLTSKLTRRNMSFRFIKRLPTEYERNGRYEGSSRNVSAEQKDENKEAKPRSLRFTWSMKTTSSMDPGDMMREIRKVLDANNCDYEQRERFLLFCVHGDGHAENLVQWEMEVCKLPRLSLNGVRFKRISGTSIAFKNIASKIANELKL
# NIM1 = target: T13, NIM1 (Homo sapiens, UniProt Q8IY84); assay: kinome scan; type: binding; settings: 10 µM
# T13 construct: purchased DiscoverX (KINOMEscan)
# PAK7 = target: T14, PAK7 (Homo sapiens, UniProt Q9P286); assay: kinome scan; type: binding; settings: 10 µM
# T14 construct: purchased DiscoverX (KINOMEscan)
# PIK3C2G = target: T15, PIK3C2G (Homo sapiens, UniProt O75747); assay: kinome scan; type: binding
# T15 construct: purchased DiscoverX (KINOMEscan)
# T15 sequence (O75747 whole entry): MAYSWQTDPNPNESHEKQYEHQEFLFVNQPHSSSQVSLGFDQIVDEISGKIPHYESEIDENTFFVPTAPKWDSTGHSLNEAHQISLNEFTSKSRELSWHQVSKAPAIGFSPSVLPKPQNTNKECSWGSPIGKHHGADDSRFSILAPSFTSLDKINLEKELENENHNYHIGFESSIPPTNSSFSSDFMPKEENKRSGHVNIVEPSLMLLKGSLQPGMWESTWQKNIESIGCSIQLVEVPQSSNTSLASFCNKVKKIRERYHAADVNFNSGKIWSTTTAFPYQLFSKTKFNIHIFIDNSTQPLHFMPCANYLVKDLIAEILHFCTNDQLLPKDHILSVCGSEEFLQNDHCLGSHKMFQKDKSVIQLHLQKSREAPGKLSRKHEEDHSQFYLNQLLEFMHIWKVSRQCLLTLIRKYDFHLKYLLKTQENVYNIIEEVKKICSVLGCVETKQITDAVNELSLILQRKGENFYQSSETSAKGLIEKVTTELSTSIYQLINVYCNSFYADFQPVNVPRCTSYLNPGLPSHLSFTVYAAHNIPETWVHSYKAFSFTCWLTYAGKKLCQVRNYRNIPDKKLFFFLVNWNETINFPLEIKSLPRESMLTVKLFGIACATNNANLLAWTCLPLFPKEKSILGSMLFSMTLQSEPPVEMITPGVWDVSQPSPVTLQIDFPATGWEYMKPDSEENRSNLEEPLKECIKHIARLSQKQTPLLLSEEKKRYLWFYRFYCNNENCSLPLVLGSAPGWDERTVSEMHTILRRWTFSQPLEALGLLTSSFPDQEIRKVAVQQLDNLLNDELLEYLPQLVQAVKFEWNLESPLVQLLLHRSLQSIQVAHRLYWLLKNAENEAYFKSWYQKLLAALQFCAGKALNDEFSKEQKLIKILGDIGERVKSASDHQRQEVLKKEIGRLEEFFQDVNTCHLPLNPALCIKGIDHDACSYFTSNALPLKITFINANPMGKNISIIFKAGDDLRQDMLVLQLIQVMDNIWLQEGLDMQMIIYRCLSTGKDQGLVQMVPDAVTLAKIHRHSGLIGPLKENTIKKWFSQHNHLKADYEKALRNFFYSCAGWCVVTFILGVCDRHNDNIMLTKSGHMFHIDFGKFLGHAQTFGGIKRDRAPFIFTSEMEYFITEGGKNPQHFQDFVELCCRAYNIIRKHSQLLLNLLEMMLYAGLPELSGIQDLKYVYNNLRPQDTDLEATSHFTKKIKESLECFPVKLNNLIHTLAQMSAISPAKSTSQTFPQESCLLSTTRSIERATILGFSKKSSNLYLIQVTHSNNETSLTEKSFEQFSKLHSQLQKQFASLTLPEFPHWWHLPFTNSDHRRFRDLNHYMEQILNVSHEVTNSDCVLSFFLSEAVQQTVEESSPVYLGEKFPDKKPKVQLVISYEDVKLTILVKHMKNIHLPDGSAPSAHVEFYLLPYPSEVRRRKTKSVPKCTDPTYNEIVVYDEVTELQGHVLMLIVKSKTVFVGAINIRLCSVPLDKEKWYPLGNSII
# PIK3CA(E545K) = target: T16, PIK3CA(E545K) (Homo sapiens, UniProt P42336, E545K); assay: kinome scan; type: binding; settings: 10 µM
# T16 construct: purchased DiscoverX (KINOMEscan)
# PKN2 = target: T17, PKN2 (Homo sapiens, UniProt Q16513); assay: kinome scan; type: binding; settings: 10 µM
# T17 construct: purchased DiscoverX (KINOMEscan)
# PLK1 = target: T18, PLK1 (Homo sapiens, UniProt P53350); assay: kinome scan; type: binding; settings: 10 µM
# T18 construct: purchased DiscoverX (KINOMEscan)
# STK39 = target: T19, STK39 (Homo sapiens, UniProt Q9UEW8); assay: kinome scan; type: binding; settings: 10 µM
# T19 construct: purchased DiscoverX (KINOMEscan)
# TAOK1 = target: T20, TAOK1 (Homo sapiens, UniProt Q7L7X3); assay: kinome scan; type: binding; settings: 10 µM
# T20 construct: purchased DiscoverX (KINOMEscan)
# T20 sequence (Q7L7X3 whole entry): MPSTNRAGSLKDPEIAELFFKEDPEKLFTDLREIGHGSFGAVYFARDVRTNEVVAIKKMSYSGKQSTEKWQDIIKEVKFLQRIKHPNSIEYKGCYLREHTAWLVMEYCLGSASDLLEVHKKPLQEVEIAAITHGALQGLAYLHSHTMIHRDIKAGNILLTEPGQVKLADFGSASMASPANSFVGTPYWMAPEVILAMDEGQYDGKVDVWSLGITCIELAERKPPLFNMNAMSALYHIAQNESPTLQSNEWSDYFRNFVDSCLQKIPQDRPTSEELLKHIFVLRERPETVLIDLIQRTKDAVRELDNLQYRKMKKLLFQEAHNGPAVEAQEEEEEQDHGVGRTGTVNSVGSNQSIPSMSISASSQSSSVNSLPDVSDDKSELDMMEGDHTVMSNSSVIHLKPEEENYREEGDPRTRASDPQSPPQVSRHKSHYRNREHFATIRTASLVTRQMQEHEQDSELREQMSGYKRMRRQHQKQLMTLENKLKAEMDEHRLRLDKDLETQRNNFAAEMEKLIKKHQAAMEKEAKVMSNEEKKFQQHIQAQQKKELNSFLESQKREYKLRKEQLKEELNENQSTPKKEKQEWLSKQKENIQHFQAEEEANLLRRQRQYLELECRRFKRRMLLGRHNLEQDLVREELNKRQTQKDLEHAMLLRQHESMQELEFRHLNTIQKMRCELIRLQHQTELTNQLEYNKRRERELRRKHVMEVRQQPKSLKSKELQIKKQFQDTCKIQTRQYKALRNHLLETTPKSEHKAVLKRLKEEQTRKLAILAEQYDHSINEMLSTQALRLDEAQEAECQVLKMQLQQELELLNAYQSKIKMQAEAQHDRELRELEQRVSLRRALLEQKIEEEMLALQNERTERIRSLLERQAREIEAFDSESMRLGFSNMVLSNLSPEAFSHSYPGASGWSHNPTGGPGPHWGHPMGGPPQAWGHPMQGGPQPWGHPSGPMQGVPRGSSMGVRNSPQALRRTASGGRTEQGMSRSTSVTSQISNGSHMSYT
# TNK2 = target: T21, TNK2 (Homo sapiens, UniProt Q07912); assay: kinome scan; type: binding; settings: 10 µM
# T21 construct: purchased DiscoverX (KINOMEscan)
# ULK3 = target: T22, ULK3 (Homo sapiens, UniProt Q6PHR2); assay: kinome scan; type: binding; settings: 10 µM
# T22 construct: purchased DiscoverX (KINOMEscan)
# [2] = test system: CGR8EF1αS,RLuc-Tα1,FLuc cells; assay: neural differentiation, Dual Luciferase Reporter Assay (FLuc/RLuc); type: cell-based, mouse; settings: 72 h, normalized to DMSO
# Experimental: The CGR8 mouse PSC were cultured as described ([Suter et al., 2009]). For neural induction, CGR8 cells were plated in 96-well plates at a density of 10,000 cells/cm^2 on gelatine-coated cell culture plates, in differentiation medium [BHK-21 medium supplemented with 20% foetal calf serum (Thermofisher), L-glutamine 2 mM (Thermofisher), non-essential amino acids (1X, Thermofisher), sodium pyruvate 1 mM (Thermofisher), penicillin/streptomycin 50 U/ml (Thermofisher)]. CGR8EF1αS,RLuc-Tα1,FLuc cells were described in ([Suter et al., 2009]) and were cultured as described above. Luminescence assays were directly performed in 96-well plates with the Dual Luciferase Reporter Assay System (Promega) according to the manufacturer’s instructions. Luminescence was measured with the SpectraMax L Microplate luminometer (Molecular Devices). Cell viability in the wells was measured by the addition of propidium iodide 1 µg/ml in 100 µL of PBS and fluorescence was assessed in each well using a FluoStar Optima reader (Pharmaceutical Technology Group at the University of Geneva).
# The CGR8 PSC line was stably transduced with a dual promoter/reporter gene construct containing a ubiquitous promoter (EF1αS) controlling the expression of Renilla Luciferase (RLuc) and also an early neural-specific promoter (Tα1), controlling the expression of Firefly Luciferase (FLuc). […]
# [3] = test system: Hemoglobin beta chain splicing at IVS2 705 locus; design: method as in CHEMBL1614204; settings: reported activity, data mining; ref CHEMBL1614204; cited from earlier work
# [4] = test system: Rat pregnane X receptor (rPXR) signaling pathway; design: method as in CHEMBL2114797; settings: reported activity, data mining; ref CHEMBL2114797; cited from earlier work
# Abelson (Abl) = Abelson (Abl) (Homo sapiens, UniProt P00519); assay: kinome scan; type: binding; design: T7 phage fusion (kinase-tagged phage); purchased DiscoverX (Ambit Biosciences); host or cells: BL21-derived E. coli (T7 phage); settings: read-out: Kinome scan (% of control at 10 µM)
# Experimental: The kinome scan analysis was performed using the DiscoverX platform (www.discoverx.com). Briefly, T7 kinase-tagged phage strains are grown in parallel in 24-well or 96-well blocks in a BL21-derived E. coli host for 90 min until lysis. Lysates are centrifuged at 6,000 x g and filtered with a 0.2 µm filter to remove cell debris. Streptavidin-coated magnetic beads are treated with biotinylated kinase ligands for 30 min at room temperature to generate the affinity resin. Bound beads are blocked with excess biotin and washed with blocking buffer (SeaBlock (Pierce), 1% BSA, 0.05% Tween 20, and 1 mM DTT) to remove unbound ligand and reduce nonspecific phage binding. […] The final concentration of test compound is 10 µM. Assay plates are incubated at room temperature with shaking for 1 h. Affinity beads are treated four times with washing buffer (1X PBS, 0.05% Tween 20, and 1 mM DTT) to remove unbound phage. […] Q RT PCR is used to measure the amount of phage in each eluate (which is proportional to the amount of kinase bound). […]
# Hits are identified by an ultra-sensitive quantitative PCR detecting the specific DNA tag linked to each kinase (Supplementary Figure S2). The drug is used at a concentration of 10 µM and results are expressed as the percentage of signal (kinase PCR detection) with respect to DMSO control conditions. […]
# T2 sequence (P37023 22-503): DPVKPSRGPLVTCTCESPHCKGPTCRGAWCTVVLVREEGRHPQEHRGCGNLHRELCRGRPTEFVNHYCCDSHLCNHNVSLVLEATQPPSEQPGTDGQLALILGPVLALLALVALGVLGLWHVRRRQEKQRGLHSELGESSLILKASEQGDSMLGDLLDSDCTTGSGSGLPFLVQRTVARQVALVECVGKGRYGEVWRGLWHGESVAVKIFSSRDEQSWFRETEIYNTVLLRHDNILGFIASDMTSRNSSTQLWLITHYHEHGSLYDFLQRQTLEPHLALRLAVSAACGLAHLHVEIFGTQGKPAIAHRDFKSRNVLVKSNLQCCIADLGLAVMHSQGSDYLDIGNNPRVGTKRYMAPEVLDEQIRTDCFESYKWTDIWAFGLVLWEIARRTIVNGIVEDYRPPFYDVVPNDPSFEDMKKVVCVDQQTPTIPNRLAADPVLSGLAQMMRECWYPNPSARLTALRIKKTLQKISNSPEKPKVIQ
smiles,measurement,setting,value
"Nc1ccc(N=Nc2ccccc2)c(N)n1 [phenazopyridine, 2,6-diamino-3-(phenylazo)pyridine]",kinase inhibition,[1],100
same,kinase inhibition,ACVRL1,71
same,kinase inhibition,CASK,99
same,kinase inhibition,CLK2,75
same,kinase inhibition,CLK4,72
same,kinase inhibition,EGFR(L747-E749delA750P),86
same,kinase inhibition,EIF2AK1,100
same,kinase inhibition,HIPK1,58
same,remaining activity,"KIT(V559D); KIT(V559D), 10 µM",32
same,remaining binding at 10 µM,"KIT(V559D); c-KIT Val559Asp, best mutant, read-out: Kinome scan (% of control at 10 µM)",32%
same,kinase inhibition,LIMK2,96
same,kinase inhibition,MAPKAPK2,86
same,kinase inhibition,MARK3,100
same,kinase inhibition,NIM1,100
same,kinase inhibition,PAK7,100
same,remaining activity,PIK3C2G; 10 µM,24
same,remaining binding at 10 µM,PIK3C2G; read-out: % Of control,24%
same,kinase inhibition,PIK3CA(E545K),88
same,kinase inhibition,PKN2,100
same,remaining binding (% of control),PLK1,79
same,kinase inhibition,STK39,100
same,kinase inhibition,TAOK1,93
same,kinase inhibition,TNK2,100
same,kinase inhibition,ULK3,100
same,concentration at which an increase of the FLuc signal was observed,[2],1 µM
same,concentration of maximal FLuc signal,[2],10 µM
same,Concentration,[3],20 µM
same,Concentration,[4],7 µM
same,remaining binding at 10 µM,Abelson (Abl),48%
